Experimental findings from patent publication US20250099405A1, “COMPOSITIONS, METHODS, AND DEVELOPMENT OF ARID4B INHIBITORS” (University of Kentucky Research Foundation, priority 2022, published 2025) are described below.

The nature of series [1]: Tolerability of ARD150 in mice. The series is classed as in vivo. The following applies: 125 mg/kg. On the procedure: (§1) Representative HE images of liver and spleen from mice treated with vehicle or ARD150. Images from vehicle and the highest doses of ARD150 (125 mg/kg) were shown (B). […] Three biological replicates for each time point.
The rational development of a small molecule inhibitor (SMI) of a given protein-protein pathway involves a multidisciplinary approach: computational studies, chemical synthesis, characterization of compounds, and biological characterization. ARID4B lacks a defined crystal structure which requires a heavier emphasis on in silico studies to develop SMIs for this pathway. […] Initial biological characterization through cell-based assays and in vitro/in vivo studies have shown that ARD150 targets ARID4B and is tolerable in mice at extremely high concentrations (125 mg/kg). […] Thus, even though ARD150 is a first-in-class inhibitor, further optimization is necessary to improve its characteristics as a theoretical treatment option for endocrine-resistant breast cancer.

A further series deals with T1, ARID4B (Homo sapiens, UniProt Q4LE39).
T1 construct: endogenous in cells; host or cells: MCF7
T1 sequence (Q4LE39 1-1312): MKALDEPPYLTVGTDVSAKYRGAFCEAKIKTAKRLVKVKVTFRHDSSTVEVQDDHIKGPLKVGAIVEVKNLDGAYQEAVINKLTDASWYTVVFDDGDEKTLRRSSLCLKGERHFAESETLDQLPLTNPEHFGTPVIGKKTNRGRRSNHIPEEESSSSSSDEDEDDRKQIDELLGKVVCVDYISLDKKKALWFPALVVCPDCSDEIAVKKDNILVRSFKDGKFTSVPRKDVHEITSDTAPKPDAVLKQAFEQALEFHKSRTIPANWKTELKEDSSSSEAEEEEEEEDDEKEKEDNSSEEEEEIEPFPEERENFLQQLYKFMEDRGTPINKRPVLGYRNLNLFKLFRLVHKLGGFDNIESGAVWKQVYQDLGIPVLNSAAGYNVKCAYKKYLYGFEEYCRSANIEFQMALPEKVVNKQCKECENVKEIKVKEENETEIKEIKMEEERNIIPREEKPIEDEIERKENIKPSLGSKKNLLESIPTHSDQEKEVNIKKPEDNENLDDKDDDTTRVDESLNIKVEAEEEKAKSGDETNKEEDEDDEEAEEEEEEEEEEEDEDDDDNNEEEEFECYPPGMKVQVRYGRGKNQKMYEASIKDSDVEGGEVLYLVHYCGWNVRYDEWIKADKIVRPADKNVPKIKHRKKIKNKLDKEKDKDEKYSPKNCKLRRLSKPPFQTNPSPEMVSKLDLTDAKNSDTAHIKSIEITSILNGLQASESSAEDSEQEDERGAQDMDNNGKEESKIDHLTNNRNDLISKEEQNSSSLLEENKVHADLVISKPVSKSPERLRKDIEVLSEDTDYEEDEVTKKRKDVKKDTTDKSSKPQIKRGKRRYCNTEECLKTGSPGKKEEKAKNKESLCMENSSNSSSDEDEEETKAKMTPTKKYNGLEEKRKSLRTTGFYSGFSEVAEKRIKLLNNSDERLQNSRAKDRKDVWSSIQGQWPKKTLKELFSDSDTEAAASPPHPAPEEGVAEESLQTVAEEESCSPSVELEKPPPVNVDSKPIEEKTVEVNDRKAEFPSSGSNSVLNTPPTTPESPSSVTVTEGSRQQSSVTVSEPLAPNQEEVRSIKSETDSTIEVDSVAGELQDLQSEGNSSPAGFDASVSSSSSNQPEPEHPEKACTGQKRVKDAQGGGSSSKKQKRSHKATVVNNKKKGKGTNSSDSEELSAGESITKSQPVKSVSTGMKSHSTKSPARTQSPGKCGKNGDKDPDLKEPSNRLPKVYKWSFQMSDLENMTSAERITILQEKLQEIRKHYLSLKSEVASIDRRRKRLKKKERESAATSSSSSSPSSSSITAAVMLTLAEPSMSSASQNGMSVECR
Put plainly: Cellular thermal shift assay (CETSA), endogenous ARID4B in MCF7 cells. Format: cell-based. The following applies: 10 μM, 2 h, 49-52° C. without compound. On the procedure: (B-C) show cells expressing HA-ARID4B (C) or HA-ARID4BIC (D) treated or not with ARD150 (10 μM) for 2 h were used for CESTA. […] (D-E) show cells expressing HA-ARID4B (D) or Flag-ARID4A (E) treated or not with RWR-18 (10 μM) for 2 h were used for CESTA. […] Data are means±SEM from three experiments. *P<0.05, **P<0.01, ns, not significant.
Using CETSA (cellular thermal shift assay) to examine whether ARD150 or RWR-18 binds to ARID4B, MCF7 cells treated or not with ARD150 or RWR-18 for 2 h were collected, followed by heating at 46, 49, 52, 55, and 58° C. to denature and precipitate ARID4B protein, cell lysis, removal of cell debris and aggregates by centrifugation, and finally detection of remaining thermostable ARID4B protein by western blot. The ARID4B aggregation temperatures without ARD150 were determined to be 49-52° C., but shifted to 52-55° C. after treatment with ARD150 and even more so with RWR-18 (FIG. 15A-D). To determine whether ARD150 and RWR-18 targets the chromodomain of ARID4B, CESTA was performed using chromodomain deletion mutant (ARID4BAC). HEK-293T cells expressing HA-ARID4B or HA-ARID4BAC were treated or not with ARD150 (10 μM) for 2 h and processed for CESTA.

Series [2] is described as follows: Plasma stability, incubation with mouse blood plasma, LC-MS. Format: in vitro ADME. The following applies: over the 24 h period, equivalent of 50 mg/kg. The method, then:
as §1
The potential toxicity of RWR-18 was tested using 9-week-old Balb/c female mice. The mice were injected (i.p.) with vehicle or 10 mg/kg, 25 mg/kg, and 50 mg/kg of RWR-18 (daily for 7 days, 3 mice/group). The body weight was measured daily for 21 days. The liver, spleen, heart, lung, and kidney were collected for macroscopic and histological examination. […] Preliminary plasma kinetic studies were performed. Following the incubation of the equivalent of 50 mg/kg of RWR-18 with blood plasma from mice at 10 min, 30 min, 1 h, 4 h, 16 h, and 24 h, we measured the plasma levels of RWR-18 by LC-MS.

On to `COc1ccc(C(=O)NCCCN2CCOCC2)cc1OC` [ARD150], for which, in series [1], the tolerability in mice entry was “tolerable”. For the same compound, the ARID4B aggregation temperatures on ARID4B was 52-55 °C.

`O=C(COc1ccc(OCc2ccccc2)cc1)NCCCN1CCOCC1` [RWR-18]: the “reduction in peak area in mouse blood plasma” value in series [2] is on record as around 20%.
